According to ChEMBL document CHEMBL3272020, “Synthesis, antimalarial activity, and phototoxicity of some benzo(h)quinoline-4-methanols” (J Med Chem, 1976):
Active and inactive are the calls of the source. The rule behind the calls is not given here.

Legend:
Plasmodium berghei [1] = assay: Antimalarial activity against Plasmodium berghei infected in mouse assessed as change in mean survival time at 320 mg/kg, sc; assay type: functional; settings: route subcutaneous
Plasmodium berghei [2] = assay: Antimalarial activity against Plasmodium berghei infected in mouse assessed as change in mean survival time at 640 mg/kg, sc; assay type: functional; settings: route subcutaneous
Mus musculus [3] = assay: Phototoxicity in ip dosed mouse; assay type: organism-based; settings: in vivo
Plasmodium berghei [4] = assay: Antimalarial activity against Plasmodium berghei infected in mouse assessed as change in mean survival time at 160 mg/kg, sc; assay type: functional; settings: route subcutaneous
Mus musculus [5] = assay: Toxicity in mouse infected with Plasmodium berghei assessed as animal death at 640 mg/kg, sc; assay type: organism-based; set-up: dose 640 mg/kg, route subcutaneous; settings: in vivo
Plasmodium berghei [6] = assay: Antimalarial activity against Plasmodium berghei infected in mouse assessed as disease cure by measuring host survival for 60 days at 320 mg/kg, sc; assay type: functional, organism-based; set-up: dose 320 mg/kg
Mus musculus [7] = assay: Toxicity in mouse infected with Plasmodium berghei assessed as animal death at 320 mg/kg, sc; assay type: organism-based; set-up: dose 320 mg/kg, route subcutaneous; settings: in vivo
Plasmodium berghei [8] = assay: Antimalarial activity against Plasmodium berghei infected in mouse assessed as disease cure by measuring host survival for 60 days at 160 mg/kg, sc; assay type: functional, organism-based; set-up: dose 160 mg/kg
Plasmodium berghei [9] = assay: Antimalarial activity against Plasmodium berghei infected in mouse assessed as disease cure by measuring host survival for 60 days at 640 mg/kg, sc; assay type: functional, organism-based; set-up: dose 640 mg/kg

SMILES | MST (Plasmodium berghei [1]) [days] | MST (Plasmodium berghei [2]) [days] | MED (Mus musculus [3]) | MST (Plasmodium berghei [4]) [days] | Activity (Mus musculus [5]) | Activity (Plasmodium berghei [6]) | Activity (Mus musculus [7]) | Activity (Plasmodium berghei [8]) | Activity (Plasmodium berghei [9])
CCCCN(CCCC)CC(O)c1c(C)cnc2c1ccc1ccccc12.Cl (stereo not given) | 2.9 | 5.3 | Not Active | 0.9 | Non-toxic | – | – | – | –
CCCCN(CCCC)CC(O)c1cc(-c2cc(OC)c(OC)c(OC)c2)nc2c1cc(Cl)c1ccccc12.Cl (stereo not given) | – | – | 80 mg/kg | – | – | Active | Non-toxic | Active | –
CCCCN(CCCC)CC(O)c1cc(-c2ccc(C)cc2C)nc2c1cc(Cl)c1ccccc12.Cl (stereo not given) | – | – | – | 9 | Non-toxic | Active | – | – | Active
CCCCN(CCCC)CC(O)c1cc(C(C)(C)C)nc2c1cc(C)c1ccccc12.O=C(O)C(=O)O (stereo not given) | 3.5 | 5.9 | 300 mg/kg | 2.7 | Non-toxic | – | – | – | –
CCCCN(CCCC)CC(O)c1cc(C(C)(C)C)nc2c1cc(Cl)c1ccccc12.O=C(O)C(=O)O (stereo not given) | – | – | 100 mg/kg | 2.2 | Non-toxic | Active | – | – | Active
C=C[C@H]1CN2CC[C@H]1C[C@H]2[C@H](O)c1cc(-c2ccccc2)nc2ccc(OC)cc12 | – | – | 10 mg/kg | 5.8 | Non-toxic | – | – | – | Active
CCCCN(CCCC)CC(O)c1cc(C(C)(C)C)nc2c1ccc1ccccc12.O=C(O)C(=O)O (stereo not given) | 1.2 | 10.2 | 100 mg/kg | – | Toxic | – | – | – | –
C=C[C@H]1CN2CC[C@H]1C[C@H]2[C@H](O)c1ccnc2ccc(OC)cc12 [QUININE] | – | 4.8 | Not Active | 0.6 | Non-toxic | – | – | – | –
CCCCN(CCCC)CC(O)c1cc(-c2ccc(C)cc2C)nc2c1ccc1ccccc12.Cl (stereo not given) | 4.6 | 5.6 | 300 mg/kg | 4.2 | Non-toxic | – | – | – | –
CCCCN(CCCC)CC(O)c1c(C)cnc2c1cc(Cl)c1ccccc12.Cl (stereo not given) | 12.9 | – | 400 mg/kg | 6.9 | Non-toxic | – | – | – | Active
CCCCN(CCCC)CC(O)c1c(C)cnc2c1ccc1cccc(Cl)c12.Cl (stereo not given) | 6.2 | 8.2 | 200 mg/kg | 1.2 | Non-toxic | – | – | – | –
